PubChem BioAssay (NCI)
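Dose response: 5 concentrations. Exposure: 48 h. Format: 96-well plates. Endpoint: linear interpolation; highest concentration if not reached. The concentration for 50% growth inhibition is given as GI50. At the TGI there is no net growth.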

Key:
Test in all cases: NCI tumour cell line growth inhibition, 48 h
[1] = tested on: HCT-15 colon
[2] = tested on: SF-539 CNS
[3] = tested on: OVCAR-5 ovarian
[4] = tested on: NCI-H460 lung
[5] = tested on: CAKI-1 renal
[6] = tested on: SN12C renal
[7] = tested on: M14 melanoma
[8] = tested on: UACC-257 melanoma
[9] = tested on: SK-MEL-28 melanoma
[10] = tested on: HOP-92 NSCLC
[11] = tested on: SK-MEL-5 melanoma
[12] = tested on: MDA-MB-231 breast
[13] = tested on: NCI-H226 lung
[14] = tested on: HS 578T breast
[15] = tested on: SNB-19 CNS
[16] = tested on: KM12 colon
[17] = tested on: K-562 leukemia
[18] = tested on: SR leukemia
[19] = tested on: HCT-116 colon
[20] = tested on: UACC-62 melanoma
[21] = tested on: COLO 205 colon
[22] = tested on: LOX IMVI melanoma
[23] = tested on: SW-620 colon
[24] = tested on: OVCAR-8 ovarian
[25] = tested on: A498 renal
[26] = tested on: CCRF-CEM leukemia
[27] = tested on: BT-549 breast
[28] = tested on: TK-10 renal
[29] = tested on: 786-0 renal
[30] = tested on: MCF7 breast
[31] = tested on: HCC-2998 colon
[32] = tested on: PC-3 prostate
[33] = tested on: EKVX NSCLC
[34] = tested on: RXF 393 renal
[35] = tested on: HL-60(TB) leukemia
[36] = tested on: NCI-H522 lung
[37] = tested on: ACHN renal
[38] = tested on: T-47D breast
[39] = tested on: MOLT-4 leukemia
[40] = tested on: OVCAR-3 ovarian
[41] = tested on: U251 CNS
[42] = tested on: NCI/ADR-RES ovarian
[43] = tested on: DU-145 prostate
[44] = tested on: SK-OV-3 ovarian
[45] = tested on: SK-MEL-2 melanoma
[46] = tested on: A549 NSCLC
[47] = tested on: MDA-MB-435
[48] = tested on: SF-295 CNS
[49] = tested on: HT29 colon
[50] = tested on: MALME-3M melanoma
[51] = tested on: SF-268 CNS
[52] = tested on: HOP-62 NSCLC
[53] = tested on: OVCAR-4 ovarian
[54] = tested on: SNB-75 CNS
[55] = tested on: UO-31 renal
[56] = tested on: IGROV1 ovarian
[57] = tested on: RPMI-8226 leukemia

Work on `CN(C)CCCNc1c2ccccc2nc2c1oc1ccc(Cl)cc12` yielded a GI50 [1] of 1.45 µM, a TGI [1] of 6.5 µM and a GI50 [2] of 3.31 µM. For the same molecule, the TGI [2] was 12.7 µM, the GI50 [3] was 5.24 µM and the TGI [3] was 18.8 µM. The GI50 [4] was 1.05 µM, the TGI [4] was 4.79 µM and the GI50 [5] was 2.32 µM. The TGI [5] was 13.3 µM, the GI50 [6] was 2.58 µM and the TGI [6] was 13.1 µM. For the same molecule, the GI50 [7] was 1.75 µM, the TGI [7] was 4.2 µM and the GI50 [8] was 4.65 µM. It also gave a TGI [8] of 17.2 µM, a GI50 [9] of 4.48 µM and a TGI [9] of 16.2 µM. It also gave a GI50 [10] of 1.37 µM, a TGI [10] of 6.59 µM and a GI50 [11] of 12.5 µM. The TGI [11] was 25 µM, the GI50 [12] was 2 µM and the TGI [12] was 5.69 µM. The GI50 [13] was 4.18 µM, the TGI [13] was 18.2 µM and the GI50 [14] was 4.65 µM. For the same molecule, the TGI [14] was 21.3 µM, the GI50 [15] was 4.95 µM and the TGI [15] was 18.4 µM. For the same molecule, the GI50 [16] was 2.75 µM, the TGI [16] was 14.9 µM and the GI50 [17] was 1.25 µM. It also gave a TGI [17] of 11.3 µM, a GI50 [18] of 2.19 µM and a TGI [18] of 10.1 µM. For the same molecule, the GI50 [19] was 0.949 µM, the TGI [19] was 2.32 µM and the GI50 [20] was 10.9 µM. For the same molecule, the TGI [20] was 24.5 µM, the GI50 [21] was 1.94 µM and the TGI [21] was 9.57 µM. The GI50 [22] was 1.64 µM, the TGI [22] was 3.33 µM and the GI50 [23] was 0.777 µM. For the same molecule, the TGI [23] was 8.63 µM, the GI50 [24] was 3.75 µM and the TGI [24] was 20.2 µM. It also gave a GI50 [25] of 9.15 µM, a TGI [25] of 22.9 µM and a GI50 [26] of 2.21 µM. It also gave a TGI [26] of 12.6 µM, a GI50 [27] of 3.76 µM and a TGI [27] of 14.3 µM. It also gave a GI50 [28] of 7.35 µM, a TGI [28] of 20.1 µM and a GI50 [29] of 3.22 µM. It also gave a TGI [29] of 14.4 µM, a GI50 [30] of 1.23 µM and a TGI [30] of 4.59 µM. For the same molecule, the GI50 [31] was 1.43 µM, the TGI [31] was 3.73 µM and the GI50 [32] was 3.92 µM. The TGI [32] was 15.8 µM, the GI50 [33] was 5.22 µM and the TGI [33] was 18.6 µM. For the same molecule, the GI50 [34] was 1.95 µM, the TGI [34] was 6.74 µM and the GI50 [35] was 2.71 µM. It also gave a TGI [35] of 10.1 µM, a GI50 [36] of 3.73 µM and a TGI [36] of 16.6 µM. The GI50 [37] was 1.76 µM, the TGI [37] was 15.6 µM and the GI50 [38] was 6.18 µM. It also gave a TGI [38] of 19.9 µM, a GI50 [39] of 0.521 µM and a TGI [39] of 18.9 µM. The GI50 [40] was 6.44 µM, the TGI [40] was 20.2 µM and the GI50 [41] was 3.69 µM. The TGI [41] was 16.4 µM, the GI50 [42] was 1.52 µM and the TGI [42] was 10.8 µM. For the same molecule, the GI50 [43] was 4.1 µM, the TGI [43] was 16.6 µM and the GI50 [44] was 4.53 µM. The TGI [44] was 17.3 µM, the GI50 [45] was 4.2 µM and the TGI [45] was 16.4 µM. For the same molecule, the GI50 [46] was 3.43 µM, the TGI [46] was 15.3 µM and the GI50 [47] was 3.91 µM. The TGI [47] was 16.1 µM, the GI50 [48] was 4.6 µM and the TGI [48] was 17.3 µM. It also gave a GI50 [49] of 1.03 µM, a TGI [49] of 2.94 µM and a GI50 [50] of 4.5 µM. For the same molecule, the TGI [50] was 17.1 µM, the GI50 [51] was 3.06 µM and the TGI [51] was 16.5 µM. For the same molecule, the GI50 [52] was 4.08 µM, the TGI [52] was 17 µM and the GI50 [53] was 2.83 µM. The TGI [53] was 14 µM, the GI50 [54] was 3.67 µM and the TGI [54] was 17.4 µM. It also gave a GI50 [55] of 3.15 µM, a TGI [55] of 15.1 µM and a GI50 [56] of 3.68 µM. It also gave a TGI [56] of 16.2 µM and a GI50 [57] of 2.66 µM.
